From PubChem BioAssay (NCI)
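Each compound was tested at five concentrations against cells in 96-well plates for 48 hours. GI50 marks 50% less growth. TGI is the concentration that stops growth completely.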

How the values were obtained:
Experiment in all cases: growth of human tumour cells (NCI), 48 h
[1] = tested on: SF-295 CNS
[2] = tested on: NCI-H522 lung
[3] = tested on: HT29 colon
[4] = tested on: MOLT-4 leukemia
[5] = tested on: HCC-2998 colon
[6] = tested on: HS 578T breast
[7] = tested on: NCI-H226 lung
[8] = tested on: RXF 393 renal
[9] = tested on: NCI-H23 lung
[10] = tested on: HOP-92 NSCLC
[11] = tested on: M14 melanoma
[12] = tested on: A498 renal
[13] = tested on: HOP-62 NSCLC
[14] = tested on: K-562 leukemia
[15] = tested on: UO-31 renal
[16] = tested on: PC-3 prostate
[17] = tested on: LOX IMVI melanoma
[18] = tested on: SR leukemia
[19] = tested on: HCT-15 colon
[20] = tested on: MCF7 breast
[21] = tested on: SF-268 CNS
[22] = tested on: MDA-MB-435
[23] = tested on: KM12 colon
[24] = tested on: SK-MEL-28 melanoma
[25] = tested on: SK-MEL-5 melanoma
[26] = tested on: HCT-116 colon
[27] = tested on: NCI/ADR-RES ovarian
[28] = tested on: 786-0 renal
[29] = tested on: CCRF-CEM leukemia
[30] = tested on: OVCAR-8 ovarian
[31] = tested on: U251 CNS
[32] = tested on: SK-MEL-2 melanoma
[33] = tested on: BT-549 breast
[34] = tested on: TK-10 renal
[35] = tested on: DU-145 prostate
[36] = tested on: OVCAR-5 ovarian
[37] = tested on: A549 NSCLC
[38] = tested on: SN12C renal
[39] = tested on: SK-OV-3 ovarian
[40] = tested on: T-47D breast
[41] = tested on: UACC-62 melanoma
[42] = tested on: ACHN renal
[43] = tested on: NCI-H460 lung
[44] = tested on: MDA-MB-231 breast
[45] = tested on: OVCAR-3 ovarian
[46] = tested on: EKVX NSCLC
[47] = tested on: SW-620 colon
[48] = tested on: UACC-257 melanoma
[49] = tested on: SF-539 CNS
[50] = tested on: MALME-3M melanoma
[51] = tested on: RPMI-8226 leukemia
[52] = tested on: HL-60(TB) leukemia
[53] = tested on: SNB-75 CNS
[54] = tested on: COLO 205 colon
[55] = tested on: IGROV1 ovarian
[56] = tested on: OVCAR-4 ovarian
[57] = tested on: SNB-19 CNS
[58] = tested on: CAKI-1 renal

For `C(/Cc1ccc2c(c1)OCO2)=N\NC1=NCCN1`, the TGI [1] was over 100 µM, the TGI [2] was over 100 µM and the TGI [3] was over 100 µM. The TGI [4] was over 100 µM, the TGI [5] was over 100 µM and the TGI [6] was over 100 µM. For the same compound, the TGI [7] was over 100 µM, the TGI [8] was over 100 µM and the TGI [9] was over 100 µM. It also gave a TGI [10] of over 100 µM, a TGI [11] of over 100 µM and a TGI [12] of 70.5 µM. It also gave a TGI [13] of over 100 µM, a TGI [14] of over 100 µM and a TGI [15] of over 100 µM. For the same compound, the TGI [16] was over 100 µM, the TGI [17] was over 100 µM and the TGI [18] was over 100 µM. It also gave a TGI [19] of over 100 µM, a TGI [20] of over 100 µM and a TGI [21] of over 100 µM. For the same compound, the TGI [22] was over 100 µM, the TGI [23] was over 100 µM and the TGI [24] was over 100 µM. It also gave a TGI [25] of over 100 µM, a TGI [26] of over 100 µM and a TGI [27] of over 100 µM. The TGI [28] was over 100 µM, the TGI [29] was over 100 µM and the TGI [30] was over 100 µM. It also gave a TGI [31] of over 100 µM, a TGI [32] of over 100 µM and a TGI [33] of over 100 µM. The TGI [34] was over 100 µM, the TGI [35] was over 100 µM and the TGI [36] was over 100 µM. The TGI [37] was over 100 µM, the TGI [38] was over 100 µM and the TGI [39] was over 100 µM. For the same compound, the TGI [40] was over 100 µM, the TGI [41] was over 100 µM and the TGI [42] was over 100 µM. It also gave a TGI [43] of over 100 µM, a TGI [44] of over 100 µM and a TGI [45] of over 100 µM. For the same compound, the TGI [46] was over 100 µM, the TGI [47] was over 100 µM and the TGI [48] was over 100 µM. The TGI [49] was over 100 µM, the TGI [50] was over 100 µM and the TGI [51] was over 100 µM. It also gave a TGI [52] of over 100 µM, a TGI [53] of over 100 µM and a TGI [54] of over 100 µM. It also gave a TGI [55] of over 100 µM, a TGI [56] of over 100 µM and a TGI [57] of over 100 µM.

For `CCC(c1ccc(OC)cc1)C(CC)c1ccc(O)c(CN2CCN(C)CC2)c1` (stereo unspecified), the GI50 [1] was 2.06 µM, the TGI [1] was 3.95 µM and the GI50 [2] was 4.74 µM. For the same compound, the TGI [2] was 17 µM, the GI50 [58] was 2.61 µM and the TGI [58] was 10.6 µM. For the same compound, the GI50 [3] was 2.01 µM, the TGI [3] was 9.06 µM and the GI50 [4] was 6.01 µM. For the same compound, the TGI [4] was 20.4 µM, the GI50 [5] was 2.15 µM and the TGI [5] was 4.62 µM. For the same compound, the GI50 [6] was 3.08 µM, the TGI [6] was 9.56 µM and the GI50 [7] was 12.4 µM. The TGI [7] was 30.8 µM, the GI50 [8] was 2.83 µM and the TGI [8] was 12.2 µM. The GI50 [9] was 6.37 µM, the TGI [9] was 20.6 µM and the GI50 [10] was 2 µM. It also gave a TGI [10] of 9.64 µM, a GI50 [11] of 1.99 µM and a TGI [11] of 3.8 µM. The GI50 [12] was 4.13 µM, the TGI [12] was 16.1 µM and the GI50 [13] was 11 µM. It also gave a TGI [13] of 26.2 µM, a GI50 [14] of 2.71 µM and a TGI [14] of 14.8 µM. For the same compound, the GI50 [15] was 1.83 µM, the TGI [15] was 7.32 µM and the GI50 [16] was 6.73 µM. For the same compound, the TGI [16] was 21.2 µM, the GI50 [17] was 2.48 µM and the TGI [17] was 7.64 µM. It also gave a GI50 [18] of 1.71 µM, a TGI [18] of 5.44 µM and a GI50 [19] of 2.66 µM. It also gave a TGI [19] of 7.67 µM, a GI50 [20] of 2.42 µM and a TGI [20] of 5.09 µM. It also gave a GI50 [21] of 7.66 µM, a TGI [21] of 21.5 µM and a GI50 [22] of 2.72 µM. It also gave a TGI [22] of 9.4 µM, a GI50 [23] of 3.68 µM and a TGI [23] of 12 µM. It also gave a GI50 [24] of 2.16 µM, a TGI [24] of 4.23 µM and a GI50 [25] of 1.69 µM. The TGI [25] was 3.22 µM, the GI50 [26] was 3.46 µM and the TGI [26] was 14.5 µM. For the same compound, the GI50 [27] was 5.51 µM, the TGI [27] was 20.6 µM and the GI50 [28] was 3.4 µM. For the same compound, the TGI [28] was 10.9 µM, the GI50 [29] was 5.37 µM and the TGI [29] was 20.4 µM. The GI50 [30] was 6.35 µM, the TGI [30] was 21.8 µM and the GI50 [31] was 2.73 µM. It also gave a TGI [31] of 12.2 µM, a GI50 [32] of 2.85 µM and a TGI [32] of 6.46 µM. The GI50 [33] was 13.2 µM, the TGI [33] was 26.8 µM and the GI50 [34] was 4.48 µM. The TGI [34] was 15.6 µM, the GI50 [35] was 11.3 µM and the TGI [35] was 24.1 µM. It also gave a GI50 [36] of 14.7 µM, a TGI [36] of 29.3 µM and a GI50 [37] of 8.26 µM. For the same compound, the TGI [37] was 22.8 µM, the GI50 [38] was 5.7 µM and the TGI [38] was 20.9 µM. The GI50 [39] was 13.8 µM, the TGI [39] was 29.2 µM and the GI50 [40] was 2.57 µM. The TGI [40] was 8.35 µM, the GI50 [41] was 1.99 µM and the TGI [41] was 4.16 µM. The GI50 [42] was 9.99 µM, the TGI [42] was 22.9 µM and the GI50 [43] was 3.04 µM. For the same compound, the TGI [43] was 8.2 µM, the GI50 [44] was 3.7 µM and the TGI [44] was 15.1 µM. For the same compound, the GI50 [45] was 4.1 µM, the TGI [45] was 14.3 µM and the GI50 [46] was 5.37 µM. The TGI [46] was 19.2 µM, the GI50 [47] was 3.15 µM and the TGI [47] was 10 µM. It also gave a GI50 [48] of 2.1 µM, a TGI [48] of 4.97 µM and a GI50 [49] of 2.66 µM. It also gave a TGI [49] of 7.98 µM, a GI50 [51] of 2.92 µM and a TGI [51] of 9.5 µM. For the same compound, the GI50 [52] was 2.62 µM, the TGI [52] was 5.9 µM and the GI50 [53] was 10 µM. The TGI [53] was 23 µM, the GI50 [54] was 1.73 µM and the TGI [54] was 3.42 µM. The GI50 [55] was 5.4 µM, the TGI [55] was 18 µM and the GI50 [56] was 7.22 µM. It also gave a TGI [56] of 22.4 µM, a GI50 [57] of 4.88 µM and a TGI [57] of 18.5 µM.
